Results taken from patent US11661403B2, “Oxadiazole compounds” (Vivace Therapeutics, Inc., priority 2018, dated 2023).

The molecules below were run on 8XTBD luciferase reporter (YAP) in HEK293T cells (assay: YAP Reporter Assay). Conditions: Homo sapiens, HEK-293T; HEK293T cells stably transfected with 8XTBD luciferase reporter and pRLTK; 24-hr incubation; top concentration 3 μM; read-out: Firefly Luciferase IC50.
Type: cell-based

SMILES	IC50 [nM]
FC(F)(F)c1ccc(Nc2ccccc2-c2nnco2)cc1 [Compound 20, 2-(1,3,4-oxadiazol-2-yl)-N-[4-(trifluoromethyl)phenyl]aniline]	100 to 1000
N#Cc1nnc(-c2ccccc2Nc2ccc(C(F)(F)F)cc2)o1 [Compound 22, 5-[2-[4-(trifluoromethyl)anilino]phenyl]-1,3,4-oxadiazole-2-carbonitrile]	< 100
NC(=O)CNc1nnc(-c2ccccc2Nc2ccc(C(F)(F)F)cc2)o1 [Compound 24, 2-((5-(2-((4-(trifluoromethyl)phenyl)amino)phenyl)-1,3,4-oxadiazol-2-yl)amino)acetamide]	100 to 1000
OCC(O)c1nnc(-c2ccccc2Nc2ccc(C(F)(F)F)cc2)o1 (stereo not shown) [Compound 25, 1-[5-[2-[4-(trifluoromethyl)anilino]phenyl]-1,3,4-oxadiazol-2-yl]ethane-1,2-diol]	< 100
CC(C)(C)OC(=O)N1C(=O)OCC1c1nnc(-c2ccccc2Nc2ccc(C(F)(F)F)cc2)o1 (stereo not shown) [Compound 26]	< 100
NCc1nnc(-c2ccccc2Nc2ccc(C(F)(F)F)cc2)o1 [Compound 28, 2-[5-(aminomethyl)-1,3,4-oxadiazol-2-yl]-N-[4-(trifluoromethyl)phenyl]aniline]	100 to 1000
O=C1OCC(c2nnc(-c3ccccc3Nc3ccc(C(F)(F)F)cc3)o2)O1 (stereo not shown) [Compound 29, 4-[5-[2-[4-(trifluoromethyl)anilino]phenyl]-1,3,4-oxadiazol-2-yl]-1,3-dioxolan-2-one]	< 100
NC(CO)c1nnc(-c2ccccc2Nc2ccc(C(F)(F)F)cc2)o1 (stereo not shown) [Compound 30, 2-amino-2-(5-(2-((4-(trifluoromethyl)phenyl)amino)phenyl)-1,3,4-oxadiazol-2-yl)ethanol]	100 to 1000
[N-]=[N+]=NCc1nnc(-c2ccccc2Nc2ccc(C(F)(F)F)cc2)o1 [Compound 31, 2-[5-(azidomethyl)-1,3,4-oxadiazol-2-yl]-N-[4-(trifluoromethyl)phenyl]aniline]	100 to 1000
CS(=O)(=O)N(CCO)c1nnc(-c2ccccc2Nc2ccc(C(F)(F)F)cc2)o1 [Compound 32, N-(2-hydroxyethyl)-N-(5-(2-((4-(trifluoromethyl)phenyl)amino)phenyl)-1,3,4-oxadiazol-2-yl)methanesulfonamide]	100 to 1000
O=C1NCCN1c1nnc(-c2ccccc2Nc2ccc(C(F)(F)F)cc2)o1 [Compound 34, 1-(5-(2-((4-(trifluoromethyl)phenyl)amino)phenyl)-1,3,4-oxadiazol-2-yl)imidazolidin-2-one]	100 to 1000
Cc1ocnc1-c1nnc(-c2ccccc2Nc2ccc(C(F)(F)F)cc2)o1 [Compound 35, 2-(5-(5-methyloxazol-4-yl)-1,3,4-oxadiazol-2-yl)-N-(4-(trifluoromethyl)phenyl) aniline]	100 to 1000
FC(F)(F)c1ccc(Nc2ccccc2-c2nnc(-c3cocn3)o2)cc1 [Compound 36, 2-(5-(oxazol-4-yl)-1,3,4-oxadiazol-2-yl)-N-(4-(trifluoromethyl)phenyl)aniline]	100 to 1000
FC(F)(F)c1ccc(Nc2ccccc2-c2nnc(-c3cnco3)o2)cc1 [Compound 37, 2-(5-(oxazol-5-yl)-1,3,4-oxadiazol-2-yl)-N-(4-(trifluoromethyl)phenyl)aniline]	100 to 1000
Cc1oncc1-c1nnc(-c2ccccc2Nc2ccc(C(F)(F)F)cc2)o1 [Compound 40, 2-(5-(5-methylisoxazol-4-yl)-1,3,4-oxadiazol-2-yl)-N-(4-(trifluoromethyl)phenyl) aniline]	100 to 1000
CC(O)c1nnc(-c2ccccc2Nc2ccc(C(F)(F)F)cc2)o1 (stereo not shown) [Compound 41, 1-(5-(2-((4-(trifluoromethyl)phenyl)amino)phenyl)-1,3,4-oxadiazol-2-yl)ethanol]	< 100
CC(C)(O)c1nnc(-c2ccccc2Nc2ccc(C(F)(F)F)cc2)o1 [Compound 42, 2-(5-(2-((4-(trifluoromethyl)phenyl)amino)phenyl)-1,3,4-oxadiazol-2-yl)propan-2-ol]	< 100
OC1(c2nnc(-c3ccccc3Nc3ccc(C(F)(F)F)cc3)o2)CC1 [Compound 44, 1-(5-(2-((4-(trifluoromethyl)phenyl)amino)phenyl)-1,3,4-oxadiazol-2-yl)cyclopropanol]	< 100

SMILES	IC50 [nM]
CC(C)(CO)c1nnc(-c2ccccc2Nc2ccc(C(F)(F)F)cc2)o1 [Compound 45, 2-methyl-2-(5-(2-((4-(trifluoromethyl)phenyl)amino)phenyl)-1,3,4-oxadiazol-2-yl)propan-1-ol]	< 100
Cc1ccc(S(=O)(=O)OC(c2nnc(-c3ccccc3Nc3ccc(C(F)(F)F)cc3)o2)C(F)(F)F)cc1 (stereo not shown) [Compound 46, 2,2,2-trifluoro-1-(5-(2-((4-(trifluoromethyl)phenyl)amino)phenyl)-1,3,4-oxadiazol-2-yl)ethyl 4-methylbenzenesulfonate]	100 to 1000
OCC1(c2nnc(-c3ccccc3Nc3ccc(C(F)(F)F)cc3)o2)CC1 [Compound 47, (1-(5-(2-((4-(trifluoromethyl)phenyl)amino)phenyl)-1,3,4-oxadiazol-2-yl)cyclopropyl)methanol]	< 100
FC(F)(F)c1ccc(Nc2ccccc2-c2nnc(-c3nn[nH]n3)o2)cc1 [Compound 48, 2-[5-(2H-tetrazol-5-yl)-1,3,4-oxadiazol-2-yl]-N-[4-(trifluoromethyl)phenyl]aniline]	1000 to 5000
O=c1[nH]c(-c2nnc(-c3ccccc3Nc3ccc(C(F)(F)F)cc3)o2)no1 [Compound 50, 3-[5-[2-[4-(trifluoromethyl)anilino]phenyl]-1,3,4-oxadiazol-2-yl]-4H-1,2,4-oxadiazol-5-one]	1000 to 5000
OC(c1nnc(-c2ccccc2Nc2ccc(C(F)(F)F)cc2)o1)C(F)(F)F (stereo not shown) [Compound 51, 2,2,2-trifluoro-1-(5-(2-((4-(trifluoromethyl)phenyl)amino)phenyl)-1,3,4-oxadiazol-2-yl)ethanol]	< 100
OC1(c2nnc(-c3ccccc3Nc3ccc(C(F)(F)F)cc3)o2)CCCC1 [Compound 52, 1-(5-(2-((4-(trifluoromethyl)phenyl)amino)phenyl)-1,3,4-oxadiazol-2-yl)cyclo pentanol]	< 100
Cc1ccc(S(=O)(=O)OC2(c3nnc(-c4ccccc4Nc4ccc(C(F)(F)F)cc4)o3)CC2)cc1 [Compound 53, 1-(5-(2-((4-(trifluoromethyl)phenyl)amino)phenyl)-1,3,4-oxadiazol-2-yl)cyclo propyl 4-methylbenzenesulfonate]	100 to 1000
OC1(c2nnc(-c3ccccc3Nc3ccc(C(F)(F)F)cc3)o2)COC1 [Compound 55, 3-(5-(2-((4-(trifluoromethyl)phenyl)amino)phenyl)-1,3,4-oxadiazol-2-yl)oxetan-3-ol]	< 100
OC1(c2nnc(-c3ccccc3Nc3ccc(C(F)(F)F)cc3)o2)CCOC1 (stereo not shown) [Compound 56, 3-(5-(2-((4-(trifluoromethyl)phenyl)amino)phenyl)-1,3,4-oxadiazol-2-yl)tetra hydrofuran-3-ol]	< 100
CC(C)(C)OC(=O)NC1(c2nnc(-c3ccccc3Nc3ccc(C(F)(F)F)cc3)o2)CC1 [Compound 57, Tert-Butyl (1-(5-(2-((4-(trifluoromethyl)phenyl)amino)phenyl)-1,3,4-oxadiazol-2-yl)cyclopropyl)carbamate]	100 to 1000
NC1(c2nnc(-c3ccccc3Nc3ccc(C(F)(F)F)cc3)o2)CC1 [Compound 58, 2-(5-(1-aminocyclopropyl)-1,3,4-oxadiazol-2-yl)-N-(4-(trifluoromethyl)phenyl) aniline]	100 to 1000
OC(c1nnc(-c2ccccc2Nc2ccc(C(F)(F)F)cc2)o1)C(F)F (stereo not shown) [Compound 60, 2,2-difluoro-1-(5-(2-((4-(trifluoromethyl)phenyl)amino)phenyl)-1,3,4-oxadiazol-2-yl)ethanol]	< 100
NC(=O)NC1(c2nnc(-c3ccccc3Nc3ccc(C(F)(F)F)cc3)o2)CC1 [Compound 62, 1-(1-(5-(2-((4-(trifluoromethyl)phenyl)amino)phenyl)-1,3,4-oxadiazol-2-yl)cyclopropyl)urea]	100 to 1000
FC(F)(F)c1ccc(Nc2ccccc2-c2nnc(C3(F)CC3)o2)cc1 [Compound 63, 2-(5-(1-fluorocyclopropyl)-1,3,4-oxadiazol-2-yl)-N-(4-(trifluoromethyl)phenyl) aniline]	1000 to 5000
COC1(c2nnc(-c3ccccc3Nc3ccc(C(F)(F)F)cc3)o2)CC1 [Compound 67, 2-(5-(1-methoxycyclopropyl)-1,3,4-oxadiazol-2-yl)-N-(4-(trifluoromethyl)phenyl) aniline]	< 100
C#CC(C)(C)c1nnc(-c2ccccc2Nc2ccc(C(F)(F)F)cc2)o1 [Compound 68, 2-(5-(2-methylbut-3-yn-2-yl)-1,3,4-oxadiazol-2-yl)-N-(4-(trifluoromethyl)phenyl)aniline]	< 100

Same assay, conditions: Homo sapiens, HEK-293T; […]; 24-hr incubation; top concentration 3 μM; read-out: Firefly Luciferase IC50

SMILES	IC50 [nM]
CS(=O)(=O)Nc1nnc(-c2ccccc2Nc2ccc(C(F)(F)F)cc2)o1 [Compound 38, N-(5-(2-((4-(trifluoromethyl)phenyl)amino)phenyl)-1,3,4-oxadiazol-2-yl)methanesulfonamide]	100 to 1000
OC(c1nnc(-c2ccccc2Nc2ccc(C(F)(F)F)cc2)o1)C1CC1 (stereo not shown) [Compound 49, cyclopropyl(5-(2-((4-(trifluoromethyl)phenyl)amino)phenyl)-1,3,4-oxadiazol-2-yl)methanol]	< 100
OC1(c2nnc(-c3ccccc3Nc3ccc(C(F)(F)F)cc3)o2)CCC1 [Compound 54, 1-(5-(2-((4-(trifluoromethyl)phenyl)amino)phenyl)-1,3,4-oxadiazol-2-yl)cyclo butanol]	< 100
CC(=O)NC1(c2nnc(-c3ccccc3Nc3ccc(C(F)(F)F)cc3)o2)CC1 [Compound 59, N-(1-(5-(2-((4-(trifluoromethyl)phenyl)amino)phenyl)-1,3,4-oxadiazol-2-yl)cyclopropyl)acetamide]	100 to 1000
CS(=O)(=O)C1(c2nnc(-c3ccccc3Nc3ccc(C(F)(F)F)cc3)o2)CC1 [Compound 66, 2-[5-(1-methylsulfonylcyclopropyl)-1,3,4-oxadiazol-2-yl]-N-[4-(trifluoromethyl)phenyl]aniline]	< 100
